What follows are compounds tested on KM mice (assay: Test for drug-induced disappearance of righting reflex in mice). Details: 30 mg/kg, single rapid bolus via tail vein.
Type: in vivo
Source text: In anesthetic drug experiments, latency generally refers to the time from the start of administration to the loss of consciousness of the subject. The shorter latency is preferred, indicating a rapid onset of action after administration. The duration of anesthesia generally refers to the duration of time from the loss of consciousness to the restoration of consciousness of the subject. The duration of the drug will vary from animal model to animal species. Too long anesthesia may produce adverse cardiovascular and respiratory responses, such as adverse neurological effects to the subject, including sleepiness and dizziness; meanwhile, too short duration of anesthesia may affect the anesthesia effect, causing problems such as increase of anesthesia dosage during the operation.
KM mice (female, 18-25 g) were randomly grouped and subjected to a single administration by rapid bolus via the tail vein. The latency and duration of disappearance of righting reflex in the mice were recorded.

SMILES	Duration [min]	Latency [min]
COC(=O)CC[C@@H]1N=C(c2ccccc2F)c2cc(Cl)ccc2-n2c(SCN3CCN(c4ccccc4)CC3)nnc21 [Compound 72, methyl (S)-3-(8-chloro-6-(2-fluorophenyl)-1-(((4-phenylpiperazin-1-yl)methyl)thio)-4H-benzo[f][1,2,4]triazolo[4,3-a][1,4]diazepin-4-yl)propionate]	13.12	0.42
COC(=O)CC[C@@H]1N=C(c2ccccc2F)c2cc(Br)ccc2-n2c(SCN3CCN(c4ccccc4)CC3)nnc21 [Compound 73, methyl (S)-3-(8-bromo-6-(2-fluorophenyl)-1-(((4-phenylpiperazin-1-yl)methyl)thio)-4H-benzo[f][1,2,4]triazolo[4,3-a][1,4]diazepin-4-yl)propionate]	12.12	0.86
COC(=O)CC[C@@H]1N=C(c2ccccc2F)c2cc([N+](=O)[O-])ccc2-n2c(SCN3CCN(c4ccccc4)CC3)nnc21 [Compound 74, methyl (S)-3-(8-nitro-6-(2-fluorophenyl)-1-(((4-phenylpiperazin-1-yl)methyl)thio)-4H-benzo[f][1,2,4]triazolo[4,3-a][1,4]diazepin-4-yl)propionate]	6.16	0.47
COC(=O)CC[C@@H]1N=C(c2ccccc2Cl)c2cc(Cl)ccc2-n2c(SCC3CC3)nnc21 [Compound 75, methyl (S)-3-(8-chloro-6-(2-chlorophenyl)-1-((cyclopropylmethyl)thio)-4H-benzo[f][1,2,4]triazolo[4,3-a][1,4]diazepin-4-yl)propionate]	6.53	0.51
COC(=O)CC[C@@H]1N=C(c2ccccc2Cl)c2cc(Br)ccc2-n2c(SCC3CC3)nnc21 [Compound 76, methyl (S)-3-(8-bromo-6-(2-chlorophenyl)-1-((cyclopropylmethyl)thio)-4H-benzo[f][1,2,4]triazolo[4,3-a][1,4]diazepin-4-yl)propionate]	5.65	0.76
COC(=O)CC[C@@H]1N=C(c2ccccc2Cl)c2cc([N+](=O)[O-])ccc2-n2c(SCC3CC3)nnc21 [Compound 77, methyl (S)-3-(8-nitro-6-(2-chlorophenyl)-1-((cyclopropylmethyl)thio)-4H-benzo[f][1,2,4]triazolo[4,3-a][1,4]diazepin-4-yl)propionate]	5.69	0.38
C#CCSc1nnc2n1-c1ccc(Cl)cc1C(c1ccccc1Cl)=N[C@H]2CCC(=O)OC [Compound 78, methyl (S)-3-(8-chloro-6-(2-chlorophenyl)-1-(prop-2-yn-1-ylthio)-4H-benzo[f][1,2,4]triazolo[4,3-a][1,4]diazepin-4-yl)propionate]	12.67	1.05
C#CCSc1nnc2n1-c1ccc(Br)cc1C(c1ccccc1Cl)=N[C@H]2CCC(=O)OC [Compound 79, methyl (S)-3-(8-bromo-6-(2-chlorophenyl)-1-(prop-2-yn-1-ylthio)-4H-benzo[f][1,2,4]triazolo[4,3-a][1,4]diazepin-4-yl)propionate]	6.93	0.57
CCN(CC)CCSc1nnc2n1-c1ccc(Cl)cc1C(c1ccccc1Cl)=N[C@H]2CCC(=O)OC [Compound 84, methyl (S)-3-(8-chloro-6-(2-chlorophenyl)-1-((2-(diethylamino)ethyl)thio)-4H-benzo[f][1,2,4]triazolo[4,3-a][1,4]diazepin-4-yl)propionate]	21.9	0.31
CCN(CC)CCSc1nnc2n1-c1ccc([N+](=O)[O-])cc1C(c1ccccc1Cl)=N[C@H]2CCC(=O)OC [Compound 86, methyl (S)-3-(8-nitro-6-(2-chlorophenyl)-1-((2-(diethylamino)ethyl)thio)-4H-benzo[f][1,2,4]triazolo[4,3-a][1,4]diazepin-4-yl)propionate]	18.62	0.62
COC(=O)CC[C@@H]1N=C(c2ccccc2Cl)c2cc(Br)ccc2-n2c(SCCCN(C)C)nnc21 [Compound 88, methyl (S)-3-(8-bromo-6-(2-chlorophenyl)-1-((3-(dimethylamino)propyl)thio)-4H-benzo[f][1,2,4]triazolo[4,3-a][1,4]diazepin-4-yl)propionate]	15.82	0.53
COC(=O)CC[C@@H]1N=C(c2ccccc2Cl)c2cc(Cl)ccc2-n2c(SCCN3CCN(C)CC3)nnc21 [Compound 90, methyl (S)-3-(8-chloro-6-(2-chlorophenyl)-1-((2-(4-methylpiperazin-1-yl)ethyl)thio)-4H-benzo[f][1,2,4]triazolo[4,3-a][1,4]diazepin-4-yl)propionate]	15.26	0.67
COC(=O)CC[C@@H]1N=C(c2ccccc2Cl)c2cc(Br)ccc2-n2c(SCCN3CCN(C)CC3)nnc21 [Compound 91, methyl (S)-3-(8-bromo-6-(2-chlorophenyl)-1-((2-(4-methylpiperazin-1-yl)ethyl)thio)-4H-benzo[f][1,2,4]triazolo[4,3-a][1,4]diazepin-4-yl)propionate]	17.33	1.80

Same assay, conditions: 60 mg/kg, single rapid bolus via tail vein

SMILES	Duration [min]	Latency [min]
COC(=O)CC[C@@H]1N=C(c2ccccc2F)c2cc(Cl)ccc2-n2c(SCN3CCN(c4ccccc4)CC3)nnc21 [Compound 72, methyl (S)-3-(8-chloro-6-(2-fluorophenyl)-1-(((4-phenylpiperazin-1-yl)methyl)thio)-4H-benzo[f][1,2,4]triazolo[4,3-a][1,4]diazepin-4-yl)propionate]	10.67	1.52
C#CCSc1nnc2n1-c1ccc([N+](=O)[O-])cc1C(c1ccccc1Cl)=N[C@H]2CCC(=O)OC [Compound 80, methyl (S)-3-(8-nitro-6-(2-chlorophenyl)-1-(prop-2-yn-1-ylthio)-4H-benzo[f][1,2,4]triazolo[4,3-a][1,4]diazepin-4-yl)propionate]	13.57	0.86
COC(=O)CC[C@@H]1N=C(c2ccccc2Cl)c2cc(Cl)ccc2-n2c(SCCN3CCOCC3)nnc21 [Compound 81, methyl (S)-3-(8-chloro-6-(2-chlorophenyl)-1-((2-morpholinoethyl)thio)-4H-benzo[f][1,2,4]triazolo[4,3-a][1,4]diazepin-4-yl)propionate]	6.41	0.21
CCN(CC)CCSc1nnc2n1-c1ccc(Br)cc1C(c1ccccc1Cl)=N[C@H]2CCC(=O)OC [Compound 85, methyl (S)-3-(8-bromo-6-(2-chlorophenyl)-1-((2-(diethylamino)ethyl)thio)-4H-benzo[f][1,2,4]triazolo[4,3-a][1,4]diazepin-4-yl)propionate]	13.12	0.67
COC(=O)CC[C@@H]1N=C(c2ccccc2Cl)c2cc(Cl)ccc2-n2c(SCCCN(C)C)nnc21 [Compound 87, methyl (S)-3-(8-chloro-6-(2-chlorophenyl)-1-((3-(dimethylamino)propyl)thio)-4H-benzo[f][1,2,4]triazolo[4,3-a][1,4]diazepin-4-yl)propionate]	21.17	0.73
COC(=O)CC[C@@H]1N=C(c2ccccc2Cl)c2cc([N+](=O)[O-])ccc2-n2c(SCCCN(C)C)nnc21 [Compound 89, methyl (S)-3-(8-nitro-6-(2-chlorophenyl)-1-((3-(dimethylamino)propyl)thio)-4H-benzo[f][1,2,4]triazolo[4,3-a][1,4]diazepin-4-yl)propionate]	9.88	0.83

Same assay, conditions: 100 mg/kg, single rapid bolus via tail vein

SMILES	Duration [min]	Latency [min]
COC(=O)CC[C@@H]1N=C(c2ccccc2Cl)c2cc(Cl)ccc2-n2c(SCCN3CCOCC3)nnc21 [Compound 81, methyl (S)-3-(8-chloro-6-(2-chlorophenyl)-1-((2-morpholinoethyl)thio)-4H-benzo[f][1,2,4]triazolo[4,3-a][1,4]diazepin-4-yl)propionate]	12.38	0.22

From US20230416258A1, “BENZ[…], AND PREPARATION METHOD THEREFOR AND USE THEREOF” (CHINA PHARMACEUTICAL UNIVERSITY, priority 2020, published 2023)
